In publication PMC7177633, “Effective Cellular Transport of Ortho-Halogenated Sulfonamide Derivatives of Metformin Is Related to Improved Antiproliferative Activity and Apoptosis Induction in MCF-7 Cells” (International Journal of Molecular Sciences, 2020):

Experiments:
Format in all cases: cell-based, human
OCTs = test: Inhibition of [14C]choline uptake in MDA-MB-231 cells (competitive inhibition assay); conditions: mean ± SD (n = 3)
Procedure, shortened: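 [14C]choline uptake was measured in MDA-MB-231 or MCF-7 monolayers in HBSS with 25 mM HEPES, pH 7.4. After ice-cold washes the cells were lysed in 0.1 M NaOH and radioactivity was counted by liquid scintillation, with at least three replicates per passage.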

MCF-7 cells = test: Annexin V-FITC/PI apoptosis assay, MCF-7; conditions: for Early Apoptotic [E+−] / Late Apoptotic [E++] / Living Cells [E−−] / Necrotic Cells [E−+] / Single Cells in Gate B: MCF-7, 24 h
Description: (§1) MCF-7 and MDA-MB-231 cells were seeded at a density of 5 × 10^4 per well on 24-well plates and incubated for 24 h (37 °C, 5% CO2) to obtain 70 % confluency. Then, the medium (control) or medium with the tested compounds in a volume of 250 μL was added and incubated for another 24 h. The cells were harvested using accutase (Sigma Aldrich, St. Louis, MO, USA) as a detaching reagent, collected to Eppendorf tubes and centrifuged (1100 rpm, 5 min). Afterwards, the cells were resuspended in 1 mL of a cold cell-staining buffer (Biolegend, London UK) and washed twice with a cell-staining buffer. The final step included suspension of the cell pellets in 100 μL of a binding buffer, staining with propidine iodide (PI; 10 μL) and FITC-annexin solutions (AV; 5 μL) (FITC Annexin V Apoptosis Detection Kit with PI (Biolegend, UK)). The samples were incubated for 20 min at room temperature in the dark, followed by an analysis conducted on a cytometer (CytoFlex, blue laser, 480 nm, Beckman-Coulter, Indianapolis, IN, USA). The results were analyzed using Kaluza 2.1 (Beckman-Coulter) software.
(§2) Annexin V (−) and PI (−) cells were considered living cells, annexin V (+) and PI (−) as early-apoptotic cells, annexin V (+) and PI (+) as late-apoptotic cells and annexin V (−) and PI (+) as necrotic cells.
(§3) The experiments were conducted in triplicates (n = 3). The coefficients of variation for the assay were determined (CV = 0.97–13.62%, depending on the calculated cell population).

MDA-MB-231 cells [1] = test: Annexin V-FITC/PI apoptosis assay, MDA-MB-231; conditions: for Early Apoptotic [E+−] / Late Apoptotic [E++] / Living Cells [E−−] / Necrotic Cells [E−+] / Single Cells in Gate B: MDA-MB-231, 24 h
Description: as §1, §2, §3

MDA-MB-231 cells [2] = test: Cell cycle analysis (PI, flow cytometry), MDA-MB-231; conditions: MDA-MB-231, 24 h, 2600 µmol/L (IC50 value)
Description: MCF-7 and MDA-MB-231 cells were seeded in 6-well plates at a density of 2 × 10^5 cells per well and cultured for 24 h under standard conditions (with 2 mL of the medium). Next, cells were exposed to the tested compounds at concentrations corresponding to IC50. After 24 h of treatment, control and treated cells were then collected (washed with cold PBS and treated with accutase), transferred to Eppendorf tubes and centrifuged (1100 rpm, 5 min, 5 °C). The supernatant was discarded, cold PBS was added (1 mL) and the cells were centrifuged (1200 rpm, 5 min). The solution was removed, and the cells were fixed in cold 70% ethanol at 4 °C. Prior to the analysis, the cells were centrifuged (3600 rpm, 5 min) and washed twice with PBS. The solution was discarded, the pellets were suspended in 200 µL of PBS and incubated with ribonuclease at 37 °C (25 µL, final concentration in a sample was 100 µg/mL) for 30 min and stained with propidine iodide (12.5 µL, final concentration in a sample was 50 µg/mL) in darkness at room temperature for additional 20 min. The final volume of the sample was 250 µL.
DNA content and the number of cells in individual cell cycle phases was measured by flow cytometry (CytoFlex, blue laser, 480 nm, Beckman-Coulter, Indianapolis, IN, USA). Cells (20,000) were analyzed from each sample. The percentage of cells in each cell cycle phase was calculated from live cells that were expressed as 100%. The data are presented as the mean ± SD of three independent experiments. The coefficients of variation for the assay were established (CV = 0.37–11.78%, depending on the cell population).

[3] = MCF-7, 430 uM, representative cytogram Figure 7A
[4] = IC50 (Comp. 1 13, Comp. 4 430, Comp. 7 55 μmol/L)
[5] = ½ × IC50 (Comp. 1 6.5, Comp. 4 215, Comp. 7 27.5 μmol/L)
[6] = ½ × IC50 (Comp. 1 6.5, Comp. 4 215, Comp. 7 27.5 μmol/L), listed as Comp. 4
[7] = MDA-MB-231, 3000 uM, representative cytogram Figure 7B
[8] = Comp. 1 and 4 1500 μmol/L, Comp. 7 1300 μmol/L (½ × IC50)
[9] = Comp. 1 and 4 3000 μmol/L, Comp. 7 2600 (IC50)

Compound | IC50 (OCTs) [µM] | Early Apoptotic [E+−] (MCF-7 cells; [4]) [%] | Late Apoptotic [E++] (MCF-7 cells; [4]) [%] | Living Cells [E−−] (MCF-7 cells; [4]) [%] | Necrotic Cells [E−+] (MCF-7 cells; [4]) [%] | Single Cells in Gate B (MCF-7 cells; [4]) [%] | Early Apoptotic [E+−] (MCF-7 cells; [5]) [%] | Late Apoptotic [E++] (MCF-7 cells; [5]) [%] | Living Cells [E−−] (MCF-7 cells; [5]) [%] | Necrotic Cells [E−+] (MCF-7 cells; [5]) [%] | Single Cells in Gate B (MCF-7 cells; [5]) [%] | Early Apoptotic [E+−] (MDA-MB-231 cells [1]; [8]) [%] | Late Apoptotic [E++] (MDA-MB-231 cells [1]; [8]) [%] | Living Cells [E−−] (MDA-MB-231 cells [1]; [8]) [%] | Necrotic Cells [E−+] (MDA-MB-231 cells [1]; [8]) [%] | Single Cells in Gate B (MDA-MB-231 cells [1]; [8]) [%] | Early Apoptotic [E+−] (MDA-MB-231 cells [1]; [9]) [%] | Late Apoptotic [E++] (MDA-MB-231 cells [1]; [9]) [%] | Living Cells [E−−] (MDA-MB-231 cells [1]; [9]) [%] | Necrotic Cells [E−+] (MDA-MB-231 cells [1]; [9]) [%] | other results
CN(C)C(=N)N=C(N)NS(=O)(=O)c1ccccc1Br [Compound 4] | 920 ± 13 | 22.71 ± 2.11 | 60.16 ± 2.21 | 16.84 ± 1.93 | 0.29 ± 0.09 | 83.19 ± 0.40 | 30.69 ± 3.01 | 34.69 ± 1.51 | 34.17 ± 3.88 | 0.45 ± 0.15 | 78.90 ± 0.11 | 7.74 ± 0.91 | 13.30 ± 0.66 | 72.64 ± 1.76 | 6.31 ± 0.26 | 93.37 ± 0.34 | 6.85 ± 0.34 | 36.51 ± 3.36 | 49.49 ± 2.31 | 7.15 ± 1.45 | Early apoptosis (representative cytogram) (MCF-7 cells; [3]): 24.99%; Late apoptosis (representative cytogram) (MCF-7 cells; [3]): 59.54%; Live cells (representative cytogram) (MCF-7 cells; [3]): 15.26%; Necrotic cells (representative cytogram) (MCF-7 cells; [3]): 0.21%; Late Apoptotic [E++] (MCF-7 cells; IC50 (Comp. 1 13, Comp. 4 430, Comp. 7 55 μmol/L), listed as Comp. 4): 60.16 ± 2.21 %; Early Apoptotic [E+−] (MCF-7 cells; [6]): 30.69 ± 3.01 %; Late Apoptotic [E++] (MCF-7 cells; [6]): 34.69 ± 1.51 %; Living Cells [E−−] (MCF-7 cells; [6]): 34.17 ± 3.88 %; Early apoptosis (representative cytogram) (MDA-MB-231 cells [1]; [7]): 6.91%; Late apoptosis (representative cytogram) (MDA-MB-231 cells [1]; [7]): 34.48%; Live cells (representative cytogram) (MDA-MB-231 cells [1]; [7]): 51.21%; Necrotic cells (representative cytogram) (MDA-MB-231 cells [1]; [7]): 7.40%; Single Cells in Gate B (MDA-MB-231 cells [1]; [9]): 90.59 ± 0.70 %
CN(C)C(=N)N=C(N)NS(=O)(=O)c1ccccc1F [Compound 7] | 5149 ± 22 | 24.35 ± 2.19 | 43.24 ± 4.09 | 31.88 ± 4.77 | 0.54 ± 0.01 | 79.48 ± 0.82 | 23.59 ± 1.57 | 35.98 ± 4.64 | 39.85 ± 5.67 | 0.57 ± 0.03 | 78.97 ± 0.51 | 8.78 ± 0.63 | 18.89 ± 2.67 | 68.26 ± 3.51 | 4.06 ± 1.75 | 93.75 ± 0.41 | 6.39 ± 0.16 | 35.54 ± 2.67 | 50.40 ± 4.95 | 7.66 ± 2.93 | G0/G1 (MDA-MB-231 cells [2]): 64.31 ± 1.13 %; G2/M (MDA-MB-231 cells [2]): 12.24 ± 0.10 %; S (MDA-MB-231 cells [2]): 19.99 ± 0.97 %; Sub G0/G1 (MDA-MB-231 cells [2]): 3.41 ± 0.08 %; Single Cells in Gate B (MDA-MB-231 cells [1]; [9]): 91.60 ± 0.48 %
CN(C)C(=N)N=C(N)NS(=O)(=O)c1ccccc1Cl [Compound 1] | 2135 ± 14 | 35.79 ± 3.78 | 33.84 ± 3.17 | 29.96 ± 6.41 | 0.41 ± 0.02 | 82.66 ± 0.68 | 27.59 ± 1.03 | 38.93 ± 3.46 | 32.82 ± 4.50 | 0.67 ± 0.08 | 77.51 ± 0.92 | 7.66 ± 0.06 | 8.06 ± 0.81 | 81.55 ± 1.65 | 2.74 ± 0.98 | 94.34 ± 0.26 | 9.96 ± 0.92 | 31.41 ± 3.46 | 53.83 | 4.81 ± 0.60 | Living Cells [E−−] (MDA-MB-231 cells [1]; Comp. 1 and 4 1500 μmol/L, Comp. 7 1300 μmol/L (½ × IC50), listed as Comp. 1): 81.55 ± 1.65 %; Single Cells in Gate B (MDA-MB-231 cells [1]; [9]): 91.85 ± 0.37 %; Living Cells [E−−] (MDA-MB-231 cells [1]; Comp. 1 and 4 3000 μmol/L, Comp. 7 2600 (IC50), listed as Comp. 1): 53.83 ± 3.87 %
